One block for each molecule: values may come before it. Activity calls are given as the source filed them. Unless noted, the calls are words filed in the database; no cut-off is given here.
Experiments:
[1] = molecular target: T1, Kappa-type opioid receptor (Homo sapiens, UniProt P41145); assay: KOR agonist analogs, imaging readout, SAR follow-up, image-based (AID 2359); format: functional
[2] = molecular target: T1, Kappa-type opioid receptor; assay: KOR antagonists by imaging, SAR follow-up, image-based (AID 2348); format: functional
[3] = molecular target: T1, Kappa-type opioid receptor; assay: SAR analysis of small molecule agonists of the kappa opioid receptor via a luminescent beta-arrestin assay. [Related pubchem assays (depositor defined):AID1777, AID1786, AID1966, AID2133, AID2136, AID2348, AID2352, AID2357, AID2359, AID2370, AID2420, AID2478, AID2491, AID2492, AID2493, AID2497, AID2498, AID2500, AID449737, AID488822, AID488842]; format: functional
[4] = molecular target: T2, Delta-type opioid receptor (Homo sapiens, UniProt P41143); assay: DOR agonists, SAR follow-up, image-based (AID 2370); format: functional
T2 sequence (P41143 whole entry): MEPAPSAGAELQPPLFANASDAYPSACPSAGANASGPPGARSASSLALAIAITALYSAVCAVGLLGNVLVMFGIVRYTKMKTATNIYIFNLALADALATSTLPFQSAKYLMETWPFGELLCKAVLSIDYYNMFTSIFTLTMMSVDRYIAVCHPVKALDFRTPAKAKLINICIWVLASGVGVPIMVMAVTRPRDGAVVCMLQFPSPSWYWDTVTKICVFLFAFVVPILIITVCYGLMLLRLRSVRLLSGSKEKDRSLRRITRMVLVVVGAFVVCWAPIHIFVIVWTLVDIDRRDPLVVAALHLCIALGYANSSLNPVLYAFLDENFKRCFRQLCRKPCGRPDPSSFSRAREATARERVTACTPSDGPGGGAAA

Mu-type opioid receptor [5] = molecular target: T3, Mu-type opioid receptor (Homo sapiens, UniProt P35372); assay: MOR agonists by imaging, SAR follow-up, image-based (AID 2352); format: functional
T3 sequence (P35372 whole entry): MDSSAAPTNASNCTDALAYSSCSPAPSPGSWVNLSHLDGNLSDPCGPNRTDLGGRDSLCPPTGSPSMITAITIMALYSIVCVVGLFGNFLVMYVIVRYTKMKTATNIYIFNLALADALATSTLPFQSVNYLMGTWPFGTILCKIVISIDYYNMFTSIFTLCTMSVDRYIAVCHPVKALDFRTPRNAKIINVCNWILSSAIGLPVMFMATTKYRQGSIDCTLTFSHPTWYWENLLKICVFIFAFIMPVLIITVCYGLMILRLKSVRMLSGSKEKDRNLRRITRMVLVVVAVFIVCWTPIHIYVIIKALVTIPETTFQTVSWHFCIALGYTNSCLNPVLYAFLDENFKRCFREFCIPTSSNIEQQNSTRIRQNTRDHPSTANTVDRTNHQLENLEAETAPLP

Mu-type opioid receptor [6] = molecular target: T3, Mu-type opioid receptor; assay: MOR antagonists, SAR follow-up, image-based (AID 2420); format: functional;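 further: compounds added before stimulation of receptor with agonist DAMGO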
[7] = molecular target: T2, Delta-type opioid receptor; assay: DOR antagonists, SAR follow-up, image-based (AID 2357); format: functional
[8] = molecular target: T4, E3 ubiquitin-protein ligase XIAP (Homo sapiens, UniProt P98170); assay: SAR analysis of Antagonists of XIAP-Bir3 domain of IAP-family anti-apoptotic proteins. [Related pubchem assays (depositor defined):AID1018, AID1449, AID1513, AID1514, AID1638]
T4 sequence (P98170 whole entry, the tested form may be a part): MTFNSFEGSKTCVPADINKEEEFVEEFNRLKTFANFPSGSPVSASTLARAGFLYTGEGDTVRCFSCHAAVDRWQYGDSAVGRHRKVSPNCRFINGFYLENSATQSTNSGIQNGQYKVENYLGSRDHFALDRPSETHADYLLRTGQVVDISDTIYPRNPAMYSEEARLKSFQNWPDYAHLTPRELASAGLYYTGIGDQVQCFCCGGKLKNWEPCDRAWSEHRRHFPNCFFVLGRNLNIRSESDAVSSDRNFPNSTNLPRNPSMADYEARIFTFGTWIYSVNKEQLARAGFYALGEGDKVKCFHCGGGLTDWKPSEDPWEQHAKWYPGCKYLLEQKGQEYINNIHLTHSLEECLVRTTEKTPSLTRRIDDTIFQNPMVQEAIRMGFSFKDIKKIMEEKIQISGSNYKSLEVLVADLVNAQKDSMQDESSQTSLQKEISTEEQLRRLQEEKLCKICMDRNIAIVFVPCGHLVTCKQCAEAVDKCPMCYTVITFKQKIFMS

[9] = molecular target: T4, E3 ubiquitin-protein ligase XIAP; assay: SAR analysis of Antagonists of IAP-family anti-apoptotic proteins. [Related pubchem assays (depositor defined):AID1018, AID1449, AID1513, AID1514, AID1638]
Cannabinoid receptor 2 [10] = molecular target: T5, Cannabinoid receptor 2 (Homo sapiens, UniProt P34972); assay: SAR analysis of agonists of the Cannabinoid Receptor 2 using an Image-Based Assay - Set 3. [Related pubchem assays (depositor defined):AID2013, AID2026]; format: functional
T5 sequence (P34972 whole entry): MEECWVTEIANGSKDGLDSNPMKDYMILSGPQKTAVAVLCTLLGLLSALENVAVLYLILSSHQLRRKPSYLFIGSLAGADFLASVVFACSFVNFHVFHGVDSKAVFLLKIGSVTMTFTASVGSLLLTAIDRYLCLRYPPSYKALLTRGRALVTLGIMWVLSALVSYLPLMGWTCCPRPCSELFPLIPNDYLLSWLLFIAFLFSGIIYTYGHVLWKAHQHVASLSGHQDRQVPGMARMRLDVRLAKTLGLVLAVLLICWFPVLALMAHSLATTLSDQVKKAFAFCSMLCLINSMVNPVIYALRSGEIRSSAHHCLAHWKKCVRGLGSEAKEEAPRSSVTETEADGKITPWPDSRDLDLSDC

[11] = molecular target: G-protein coupled receptor 55 (Homo sapiens, UniProt Q9Y2T6); assay: SAR Analysis of Selective Antagonists of GPR55 using an Image-Based Assay - Set 4. [Related pubchem assays (depositor defined):AID2013, AID2026]; format: functional;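 further: antagonism of response to 5 µM lysophosphatidylinositol agonist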
Sequence of G-protein coupled receptor 55 (Q9Y2T6 whole entry): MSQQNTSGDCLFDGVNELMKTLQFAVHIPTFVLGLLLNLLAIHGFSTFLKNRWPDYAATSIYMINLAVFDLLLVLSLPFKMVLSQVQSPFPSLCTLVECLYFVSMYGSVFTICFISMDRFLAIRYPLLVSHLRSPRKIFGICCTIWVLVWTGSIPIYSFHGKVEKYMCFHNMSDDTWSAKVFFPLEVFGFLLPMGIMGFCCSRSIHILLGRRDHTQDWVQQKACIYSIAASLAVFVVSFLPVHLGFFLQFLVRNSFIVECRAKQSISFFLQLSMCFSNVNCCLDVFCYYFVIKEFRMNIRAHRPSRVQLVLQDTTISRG

[12] = molecular target: T6, G-protein coupled receptor 35 (Homo sapiens, UniProt Q9HC97); assay: SAR analysis of Antagonists of the GPR35 Receptor using an Image-Based Assay - Set 6. [Related pubchem assays (depositor defined):AID2013, AID2026]; format: functional
T6 sequence (Q9HC97 whole entry): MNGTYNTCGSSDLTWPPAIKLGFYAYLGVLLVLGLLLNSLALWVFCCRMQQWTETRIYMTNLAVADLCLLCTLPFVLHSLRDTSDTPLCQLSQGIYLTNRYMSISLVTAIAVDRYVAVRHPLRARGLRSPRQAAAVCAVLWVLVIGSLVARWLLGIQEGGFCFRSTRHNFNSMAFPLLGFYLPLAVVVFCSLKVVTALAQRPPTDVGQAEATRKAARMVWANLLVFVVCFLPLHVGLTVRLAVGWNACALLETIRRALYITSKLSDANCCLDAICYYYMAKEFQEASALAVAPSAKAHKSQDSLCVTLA

Cannabinoid receptor 2 [13] = molecular target: T5, Cannabinoid receptor 2; assay: SAR analysis of antagonists of the Cannabinoid Receptor 2 using an Image-Based Assay - Set 3. [Related pubchem assays (depositor defined):AID2013, AID2026]; format: functional
Cannabinoid receptor 1 [14] = molecular target: T7, Cannabinoid receptor 1 (Homo sapiens, UniProt P21554); assay: SAR analysis of agonists of the Cannabinoid Receptor 1 using an Image-Based Assay - Set 4. [Related pubchem assays (depositor defined):AID2013, AID2026]; format: functional
T7 sequence (P21554 whole entry): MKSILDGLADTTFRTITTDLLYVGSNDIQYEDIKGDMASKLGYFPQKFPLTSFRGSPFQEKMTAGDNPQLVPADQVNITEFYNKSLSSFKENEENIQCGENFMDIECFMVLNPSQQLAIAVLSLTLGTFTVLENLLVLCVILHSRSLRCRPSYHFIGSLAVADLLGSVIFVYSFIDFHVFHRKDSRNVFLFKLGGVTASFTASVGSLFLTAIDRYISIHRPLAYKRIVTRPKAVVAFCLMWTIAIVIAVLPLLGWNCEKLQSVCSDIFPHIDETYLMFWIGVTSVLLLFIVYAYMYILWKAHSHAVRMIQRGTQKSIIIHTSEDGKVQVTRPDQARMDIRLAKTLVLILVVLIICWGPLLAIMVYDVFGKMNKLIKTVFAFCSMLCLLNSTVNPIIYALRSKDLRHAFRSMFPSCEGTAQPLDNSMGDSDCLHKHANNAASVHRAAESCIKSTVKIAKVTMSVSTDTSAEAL

[15] = molecular target: T6, G-protein coupled receptor 35; assay: SAR analysis of Agonists of the GPR35 Receptor using an Image-Based Assay - Set 4. [Related pubchem assays (depositor defined):AID2013, AID2026]; format: functional
Cannabinoid receptor 1 [16] = molecular target: T7, Cannabinoid receptor 1; assay: SAR analysis of antagonists of the Cannabinoid Receptor 1 using an Image-Based Assay - Set 4. [Related pubchem assays (depositor defined):AID2013, AID2026]; format: functional
[17] = molecular target: T2, Delta-type opioid receptor; assay: SAR Analysis of Agonists of the DOR Receptor using an Image-Based Assay - Set 2. [Related pubchem assays (depositor defined):AID1777, AID1785, AID1786, AID1966, AID2133, AID2136, AID2284, AID2285, AID2370]; format: functional
[18] = molecular target: T1, Kappa-type opioid receptor; assay: SAR analysis of small molecule agonists of the kappa opioid receptor via a luminescent beta-arrestin assay - Set 2. [Related pubchem assays (depositor defined):AID1777, AID1785, AID1786, AID1966, AID2133, AID2136, AID2284, AID449737]; format: functional
Mu-type opioid receptor [19] = molecular target: T3, Mu-type opioid receptor; assay: SAR Analysis of Antagonists of the MOR Receptor using an Image-Based Assay - Set 2. [Related pubchem assays (depositor defined):AID1777, AID1785, AID1786, AID1966, AID2133, AID2136, AID2284, AID2285, AID2420]; format: functional
[20] = molecular target: T1, Kappa-type opioid receptor; assay: SAR analysis of Agonists of the Kappa Opioid Receptor (KOR) using an Image-Based Assay - Set 2. [Related pubchem assays (depositor defined):AID1777, AID1786, AID1966, AID2133, AID2136, AID2284, AID2285, AID2359]; format: functional
Mu-type opioid receptor [21] = molecular target: T3, Mu-type opioid receptor; assay: SAR Analysis of Agonists of the MOR Receptor using an Image-Based Assay - Set 2. [Related pubchem assays (depositor defined):AID1777, AID1785, AID1786, AID1966, AID2133, AID2136, AID2284, AID2285, AID2352]; format: functional
[22] = molecular target: T1, Kappa-type opioid receptor; assay: KOR antagonist analogs, beta-arrestin recruitment, SAR follow-up, cell-based, luminescence, set 2 (AID 2495); format: functional
[23] = molecular target: T1, Kappa-type opioid receptor; assay: SAR analysis of Antagonists of the Kappa Opioid Receptor (KOR) using an Image-Based Assay - Set 2. [Related pubchem assays (depositor defined):AID1777, AID1785, AID1786, AID1966, AID2133, AID2136, AID2284, AID2285, AID2348]; format: functional
[24] = molecular target: T2, Delta-type opioid receptor; assay: SAR Analysis of Antagonists of the DOR Receptor using an Image-Based Assay - Set 2. [Related pubchem assays (depositor defined):AID1777, AID1785, AID1786, AID1966, AID2133, AID2136, AID2284, AID2285, AID2357]; format: functional

T1 sequence (P41145 whole entry): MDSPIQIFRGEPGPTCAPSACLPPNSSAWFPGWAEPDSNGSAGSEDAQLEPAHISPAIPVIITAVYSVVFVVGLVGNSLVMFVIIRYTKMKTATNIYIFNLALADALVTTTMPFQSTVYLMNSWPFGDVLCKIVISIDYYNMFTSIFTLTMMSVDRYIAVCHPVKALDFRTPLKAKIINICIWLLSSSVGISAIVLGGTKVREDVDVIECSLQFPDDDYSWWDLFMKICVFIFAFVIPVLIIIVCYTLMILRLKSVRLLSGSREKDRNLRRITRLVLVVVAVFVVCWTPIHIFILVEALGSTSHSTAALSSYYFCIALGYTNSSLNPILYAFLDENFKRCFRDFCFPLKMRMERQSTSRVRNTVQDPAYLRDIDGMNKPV

EC50 [1]: 7.66 µM (active)
IC50 [2]: > 32 µM (inactive)
EC50 [3]: > 10 µM (inactive)
EC50 [4]: > 32 µM (inactive)
EC50 (Mu-type opioid receptor [5]): > 32 µM (inactive)
IC50 (Mu-type opioid receptor [6]): > 32 µM (inactive)
IC50 [7]: > 32 µM (inactive)
SMILES: O=C(CSc1nnc(-c2ccccn2)n1Cc1ccco1)c1ccc(Cl)cc1

IC50 [8]: > 100 µM (inactive)
IC50 [9]: 3.9 µM (active)
SMILES: CN[C@@H](C)C(=O)N[C@H](C(=O)N[C@H](C(=O)Nc1cccc2ccccc12)C(C)C)C(C)C

EC50 (Cannabinoid receptor 2 [10]): 2.33 µM (active)
IC50 [11]: > 32 µM (inactive)
IC50 [12]: > 32 µM (inactive)
IC50 (Cannabinoid receptor 2 [13]): > 32 µM (inactive)
EC50 (Cannabinoid receptor 1 [14]): > 32 µM (inactive)
EC50 [15]: > 32 µM (inactive)
IC50 (Cannabinoid receptor 1 [16]): > 32 µM (inactive)
SMILES: COCCCNC(=O)c1cc2c(=O)n3ccccc3nc2n(C2CCCC2)c1=N

EC50 [17]: > 32 µM (inactive)
EC50 [18]: 4.97 µM (active)
IC50 (Mu-type opioid receptor [19]): > 32 µM (inactive)
EC50 [20]: > 32 µM (inactive)
EC50 (Mu-type opioid receptor [21]): > 32 µM (inactive)
IC50 [22]: > 20 µM (inactive)
IC50 [23]: > 32 µM (inactive)
IC50 [24]: 13.9 µM (inactive)
SMILES: Cc1cc(C)c(S(=O)(=O)NCc2ccc(C(=O)NCCN3Cc4ccccc4C3)cc2)c(C)c1
